The source of these data is patent US7919624B2, “VR1 vanilloid receptor antagonists with a iononic substructure” (Pharmeste S.R.L., priority 2006, dated 2011).

What is called IC50 is the concentration at which inhibition is half-maximal. A word on the Ki: it is the dissociation constant of the complex between target and ligand, obtained from inhibition or displacement.

Structures are written as SMILES.

Experiment [1] concerns the target T1, TRPV1 expressing neurons (rat trigeminal neurons) (Rattus norvegicus, UniProt O35433).
T1 construct: Two-days old Newborn rats were terminally anaesthetized and decapitated; Trigeminal ganglia were removed; endogenous in cells; host or cells: primary cultured trigeminal ganglion neurons from newborn Sprague-Dawley rats
The experiment is described as follows: Ca2+ fluorescence measurements in cultured rat trigeminal ganglia. Format: cell-based. Conditions: 0.1 μM capsaicin, mean and 95% fiducial limits, read-out: IC50 inhibiting capsaicin-evoked [Ca2+]i mobilization. The protocol:
Ca^2+ Fluorescence Measurements in Cultured rat Trigeminal Ganglia
Two-days old Newborn rats were terminally anaesthetized and decapitated. Trigeminal ganglia were removed and rapidly placed in a cold phosphate buffered solution (PBS) before being transferred to collagenase/dispase (1 mg/ml dissolved in Ca^2+- Mg^2+-free PBS) for 35 min at 37° C.^7 After the enzymatic treatment the ganglia were rinsed three times with Ca^2+- Mg^2+-free PBS and then placed in 2 ml of cold DMEM supplemented with 10% fetal bovine serum (FBS, heat inactivated), 2 mM L-glutamine, 100 μ/ml penicillin and 100 μg/ml streptomycin. The ganglia were dissociated into single cells by several passages through a series of syringe needles (23G down to 25G). Finally, the medium and the ganglia cells were sieved through a 40 μm filter to remove debris and topped up with 8 ml of DMEM medium and centrifuged (200×g for 5 min). The final cell pellet was re-suspended in DMEM medium [supplemented with 100 ng/ml mouse Nerve Growth Factor (mouse-NGF-7S) and cytosine-β-D-arabinofuranoside free base (ARA-C) 2.5 μM]. Cells were plated on poly-L-lysine-(8.3 μM) and laminin-(5 μM) coated 25 mm glass cover slips and kept for 5 to 8 days at 37° C. in a humidified incubator gassed with 5% CO2 and air. Plated neurons were loaded with Fura-2-AM-ester (3 μM) in Ca^2+ buffer solution of the following composition (mM): CaCl2 1.4, KCl 5.4, MgSO4 0.4, NaCl 135, D-glucose 5, HEPES 10 with BSA (0.1%), at pH 7.4, for 40 min at 37° C. The plated neurons were then washed twice with the Ca^2+ buffer solution and transferred to a chamber on the stage of Nikon eclipse TE300 microscope. Fura-2-AM-ester was excited at […] to indicate relative [Ca^2+]i changes by the F340/F380 ratio recorded with a dynamic image analysis system (Laboratory Automation 2.0, RCS, Florence, Italy). After transferring the plated neurons to the chamber, they were allowed (at least 10 min) to attain a stable fluorescence before beginning the experiment. A calibration curve was performed using buffer containing Fura-2-AM-ester and determinant concentrations of free Ca^2+.
The results are expressed as mean and 95% fiducial limits.

For experiment [2], the target named is T2, TRPV1 expressed in rat spinal cord (Rattus norvegicus, UniProt O35433).
T2 construct: the spinal cord was removed and disrupted using a Polytron tissue homogenizer; from tissue; host or cells: spinal cord membranes of male Sprague-Dawley rats
The experiment can be described thus: Radioligand binding assay, [3H]-RTX, rat spinal cord membranes. Conditions: 37° C. 60 min, range in brackets; for Ki: [3H]RTX 0.4 nM, read-out: Ki value, competition binding of [3H]-RTX. The protocol:
Radioligand Binding Assay
Male Sprague-Dawley rats with body weight between 250 and 350 g at the time for testing were used. For binding assays rats were sacrificed by decapitation under anesthesia and the spinal cord was removed and disrupted using a Polytron tissue homogenizer in ice cold buffer containing 5 mM KCl, 5.8 mM NaCl, 0.75 mM CaCl2, 2 mM MgCl2, 320 mM sucrose, 10 mM Hepes, pH 8.6.^5 The homogenized tissue was centrifuged at 1000×g for 10 min at 4° C. and the supernatant was centrifuged again at 35000×g for 30 min at 4° C. (Beckman Avanti J25). The pellet was resuspended in the same buffer described above and used in binding experiments. In saturation experiments, 150 μg protein/sample from membrane suspensions were incubated with [^3H]-resiniferatoxin ([^3H]-RTX) (0.003-3 nM) in the assay buffer containing 0.25 mg/ml fatty acid-free bovine serum albumin at 37° C. for 60 min. In competition experiments, the membranes were incubated at 37° C. for 60 min with [^3H]RTX (0.4 nM) and increasing concentrations of the examined compounds in the range from 0.1 nM to 3 μM. Non-specific binding was defined in the presence of 1 μM RTX. After incubation, the reaction mixture was cooled at 0° C. and incubated with bovine α1-acid glycoprotein (200 μg per tube) for 15 min to reduce non-specific RTX binding. Membrane-bound RTX was separated from free RTX through centrifugation of the samples at 18500×g for 15 min. The tip of the microcentrifuge tube containing the pellet was cut off and radioactivity was determined by scintillation counting (Packard 2500 TR). Protein concentration was determined according to a Bio-Rad method with bovine serum albumin as reference standard (Bradford, 1976). Saturation and competition studies were analysed with the program Ligand.^6

Experiment [3] has as its system capsaicin-induced tactile allodynia. The experiment is described as follows: Capsaicin-induced secondary allodynia in rat. Format: in vivo. The following applies: 10 mg/kg orally 2 hours prior to capsaicin (20 nmols/50 μl/paw), 90 min after capsaicin challenge. The protocol:
Capsaicin-induced Secondary Allodynia in Rat
Capsaicin (20 nmols/50 μl/paw) was injected in the plantar surface of the glabrous skin of the right paw of rats anesthetized with diethyl ether (Chaplan et al., 1994). Compound Id was orally administered (10 mg/kg) 2 hours prior to capsaicin injection. Tactile allodynia was evaluated 90 min after capsaicin challenge.

T1 sequence (O35433 whole entry): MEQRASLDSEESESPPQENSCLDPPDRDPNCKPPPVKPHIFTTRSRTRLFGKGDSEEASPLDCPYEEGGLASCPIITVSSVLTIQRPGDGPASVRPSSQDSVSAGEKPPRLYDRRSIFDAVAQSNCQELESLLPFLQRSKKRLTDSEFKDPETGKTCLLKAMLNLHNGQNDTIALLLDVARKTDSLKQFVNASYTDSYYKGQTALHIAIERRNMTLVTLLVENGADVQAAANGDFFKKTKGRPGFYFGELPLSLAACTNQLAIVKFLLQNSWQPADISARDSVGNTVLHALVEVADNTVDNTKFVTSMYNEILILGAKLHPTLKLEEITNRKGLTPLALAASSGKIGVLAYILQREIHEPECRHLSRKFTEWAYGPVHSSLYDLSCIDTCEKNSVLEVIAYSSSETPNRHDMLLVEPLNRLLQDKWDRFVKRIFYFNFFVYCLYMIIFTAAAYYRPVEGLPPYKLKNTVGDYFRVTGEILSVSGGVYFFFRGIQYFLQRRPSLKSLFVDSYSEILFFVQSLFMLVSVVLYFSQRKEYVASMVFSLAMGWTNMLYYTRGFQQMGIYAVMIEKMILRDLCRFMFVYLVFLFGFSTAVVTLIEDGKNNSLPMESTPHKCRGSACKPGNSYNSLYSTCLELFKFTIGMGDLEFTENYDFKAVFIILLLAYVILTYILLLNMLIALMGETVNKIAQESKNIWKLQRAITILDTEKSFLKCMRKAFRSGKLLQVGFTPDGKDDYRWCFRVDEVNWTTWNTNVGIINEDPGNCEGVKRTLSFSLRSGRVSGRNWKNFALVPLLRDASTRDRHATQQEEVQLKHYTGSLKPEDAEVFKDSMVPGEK
T2 sequence (O35433 whole entry): as above

With `CC1=C(/C=C/C(=O)Nc2cccc3cnccc23)C(C)(C)CCC1Oc1cccc(F)c1` (stereo not shown) [If, (2E)-3-(3-(3-fluorophenoxy)-2,6,6-trimethylcyclohex-1-enyl)-N-(isoquinolin-5-yl)acrylamide], the IC50 in experiment [1] turned out to be 0.38 nM. For the same compound, in experiment [2], the Ki is 8.14 nM.
For `COC1CCC(C)(C)C(/C=C/C(=O)Nc2cccc3cnccc23)=C1C` (stereo not shown) [Ib, (2E)-N-(isoquinolin-5-yl)-3-(3-methoxy-2,6,6-trimethylcyclohex-1-enyl)acrylamide] the same measures were 28.4 nM and 26.2 nM.
The matching figures for `CC1=C(/C=C/C(=O)Nc2cccc3cnccc23)C(C)(C)CCC1Oc1ccc(F)cc1` (stereo not shown) [Ie, (2E)-3-(3-(4-fluorophenoxy)-2,6,6-trimethylcyclohex-1-enyl)-N-(isoquinolin-5-yl)acrylamide]: 5.25 nM and 14.8 nM.
With `CC1=C(/C=C/C(=O)Nc2cccc3cnccc23)C(C)(C)CCC1Oc1ccc(F)c(F)c1` (stereo not shown) [Ig, (2E)-3-(3-(3,4-difluorophenoxy)-2,6,6-trimethylcyclohex-1-enyl)-N-(isoquinolin-5-yl)acrylamide], in experiment [1], the concentration for half-maximal inhibition (IC50) is 0.65 nM. Further, the Ki in experiment [2] is 10.3 nM.
On to `C=C(C)[C@]12C[C@@H](C)[C@@]34O[C@](Cc5ccccc5)(O[C@@H]1[C@@H]3C=C(COC(=O)Cc1ccc(O)c(OC)c1)C[C@]1(O)C(=O)C(C)=C[C@@H]41)O2` [[^3H]-RTX, [^3H]-resiniferatoxin, reference compound], for which, in experiment [2] ([3H]-RTX 0.003-3 nM, read-out: KD value, saturation curve of [3H]-RTX), the Kd was 0.21 nM.
`CC1=C(/C=C/C(=O)Nc2cccc3cnccc23)C(C)(C)CCC1Oc1ccc(Cl)cc1` (stereo not shown) [Compound Id, (2E)-3-(3-(4-chlorophenoxy)-2,6,6-trimethylcyclohex-1-enyl)-N-(isoquinolin-5-yl)acrylamide]: the “preventive effect against the pro-allodinic effect of capsaicin” value in experiment [3] was 54%. The IC50 in experiment [1] was 18.2 nM. In addition, the inhibition constant Ki in experiment [2] amounted to 27 nM.
Consider `CC1=C(/C=C/C(=O)Nc2cccc3cnccc23)C(C)(C)CCC1Oc1ccccc1` (stereo not shown) [Ic, (2E)-N-(isoquinolin-5-yl)-3-(2,6,6-trimethyl-3-phenoxycyclohex-1-enyl)acrylamide], for which the IC50 in experiment [1] stood at 2.12 nM. In addition, the Ki in experiment [2] turned out to be 4.93 nM.
Regarding `CC1=C(/C=C/C(=O)Nc2cccc3cnccc23)C(C)(C)CCC1` [Ia, (2E)-N-(isoquinolin-5-yl)-3-(2,6,6-trimethylcyclohex-1-enyl)acrylamide], the IC50 in experiment [1] worked out at 44 nM. For the same compound, in experiment [2], the Ki stood at 66 nM.
